According to US10829520B2, “Beta-hairpin peptidomimetics” (POLYPHOR AG, priority 2015, dated 2020):
Where a SMILES comes first, the peptide text is derived from it. Bridges are numbered along the chain shown (N, C = ends). [ ]: non-standard residue; d: D form. The star is where a group is joined. NαAmidinoTrp = N=C(N)N[C@@H](Cc1c[nH]c2ccccc12)C(=O)*; Hyp = O=C(O)[C@@H]1C[C@@H](O)CN1; Pen = CC(C)(S)[C@H](N)C(=O)O; dDab = NCC[C@@H](N)C(=O)O; hCys = N[C@@H](CCS)C(=O)O; Dab = NCC[C@H](N)C(=O)O; Sar = CNCC(=O)O

Experiments:
Assay type in all cases: cell-based
[1] = tested on: human red blood cells (hRBC); assay: Hemolysis of human red blood cells; details: red cells of human, 1 h, 100 μg/mL
Protocol: (§1) Lyophilized peptides were weighed on a Microbalance (Mettler MT5) and dissolved in sterile water to a final concentration of 1 mg/mL. Stock solutions were kept at +4° C., light protected.
The peptides were tested for their hemolytic activity against human red blood cells (hRBC). Fresh hRBC were washed three times with phosphate buffered saline (PBS) and centrifuged for 10 min at 2000×g. Compounds (100 μg/mL) were incubated with 20% hRBC (v/v) for 1 h at 37° C. and shaking at 300 rpm. The final erythrocyte concentration was approximately 0.9×10^9 cells/mL. A value of 0% and 100% cell lyses, respectively, was determined by incubation of hRBC in the presence of PBS containing 0.001% acetic acid and 2.5% Triton X-100 in H2O, respectively. The samples were centrifuged, the supernatants were 8-fold diluted in PBS buffer and the optical densities (OD) were measured at 540 nm. The 100% lyses value (OD540H2O) gave an OD540 of approximately 0.5-1.0.
Percent hemolysis was calculated as follows: (OD540peptide/OD540H2O)×100%.

[2] = tested on: Klebsiella pneumoniae SSI #3010; details: SSI #3010
Protocol: as §1
(§2) The in vitro antimicrobial activities of the peptides were determined in 96-well plates (Greiner, polystyrene) by the standard CLSI broth microdilution method (Clinical and Laboratory Standards Institute 2014. Performance standards for antimicrobial susceptibility testing, 24th informational supplement. Approved standard CLSI M100-S24; Clinical and Laboratory Standards Institute, Wayne, Pa.). Inocula of the microorganisms were diluted into Mueller-Hinton II (MH-cation adjusted) broth and compared with a 0.5 McFarland standard to give appr. 10^6 colony forming units (CFU)/mL. Aliquots (90 μL) of inoculate were added to 10 μL of MH-II broth+P-80 (Polysorbate 80, 0.002% final concentration, v/v) containing the peptide in serial two-fold dilutions. The following microorganisms were used to determine antibiotic activity of the peptides: Escherichia coli ATCC 25922, Klebsiella pneumoniae SSI #3010^a), Acinetobacter baumannii DSM 30008, Pseudomonas aeruginosa ATCC 27853 and the clinical isolates Escherichia coli 926415^b), Klebsiella pneumoniae 968733^b) and Acinetobacter baumannii 872842^b). Antimicrobial activities of the peptides were expressed as the minimal inhibitory concentration (MIC) in μg/mL at which no visible growth was observed after 18-20 hours of incubation at 35° C. ^a) Obtained from Statens Serum Institut (SSI), Copenhagen, Denmark^b) Obtained from International Health Management Associates, Inc. (IHMA Europe Sàrl), Epalinges, Switzerland

[3] = tested on: Escherichia coli ATCC 25922; details: ATCC 25922
Protocol: as §1, §2

[4] = tested on: Acinetobacter baumannii DSM 30008; details: DSM 30008
Protocol: as §1, §2

[5] = tested on: Pseudomonas aeruginosa ATCC 27853; details: ATCC 27853
Protocol: as §1, §2

| Structure (SMILES) | Hemolysis at 100 μg/mL [1] [%] | Klebsiella pneumoniae SSI #3010 MIC [2] [µg/mL] | Escherichia coli ATCC 25922 MIC [3] [µg/mL] | Acinetobacter baumannii DSM 30008 MIC [4] [µg/mL] | Pseudomonas aeruginosa ATCC 27853 MIC [5] [µg/mL] |
| --- | --- | --- | --- | --- | --- |
| CC(C)C[C@@H]1NC(=O)[C@@H](CC(C)C)NC(=O)[C@H](CCN)NC(=O)[C@@H](NC(=O)[C@H](CCN)NC(=O)[C@@H](NC(=O)[C@H](CCN)NC(=O)CNC(=O)[C@@H]2CCSSC[C@H](NC(=O)[C@@H](N)Cc3c[nH]c4ccccc34)C(=O)N[C@@H](C(C)C)C(=O)N[C@@H](C)C(=O)N[C@@H](CO)C(=O)N3CCC[C@@H]3C(=O)N3CCC[C@H]3C(=O)N[C@@H](CC(C)C)C(=O)N[C@@H](CO)C(=O)N[C@@H](Cc3ccc(O)cc3)C(=O)N2)[C@@H](C)O)CCNC(=O)[C@H]([C@@H](C)O)NC(=O)[C@H](CCN)NC(=O)[C@H](CCN)NC1=O [Ex. 134] (H-WCVAS[dP]PLSY[hCys]G[Dab]T[Dab][Dab][Dab][dL]L[Dab][Dab]T; disulfide 2-11; lactam 16-C) | <1 | 0.25 | 0.125 | 0.125 | 1 |
| CC(C)C[C@@H]1NC(=O)[C@H](CCN)NC(=O)[C@@H](CCN)NC(=O)[C@H](CO)NC(=O)[C@@H](NC(=O)[C@@H](NC(=O)[C@H](CCN)NC(=O)[C@@H](N)Cc2c[nH]c3ccccc23)C(C)C)CSSC[C@@H](C(=O)N[C@@H](Cc2ccc(O)cc2)C(=O)N[C@@H](CCN)C(=O)NCC(=O)N[C@@H](CCN)C(=O)N[C@H](C(=O)N[C@@H](CCN)C(=O)N[C@H]2CCNC(=O)[C@H]([C@@H](C)O)NC(=O)[C@H](CCN)NC(=O)[C@H](CCN)NC(=O)[C@H](CC(C)C)NC(=O)[C@@H](CC(C)C)NC(=O)[C@H](CCN)NC2=O)[C@@H](C)O)NC1=O [Ex. 163] (H-W[Dab]VCS[dDab][Dab]LCY[Dab]G[Dab]T[Dab][Dab][Dab][dL]L[Dab][Dab]T; disulfide 4-9; lactam 16-C) | <1 | 2 | 2 | 1 | 2 |
| CC(C)C[C@@H]1NC(=O)[C@@H](CC(C)C)NC(=O)[C@H](CCN)NC(=O)[C@@H](NC(=O)[C@H](CCN)NC(=O)[C@@H](NC(=O)[C@H](CCN)NC(=O)CNC(=O)[C@H](CCN)NC(=O)[C@H](Cc2ccc(O)cc2)NC(=O)[C@@H]2CSSC[C@H](NC(=O)[C@@H](NC(=O)[C@H](CCN)NC(=O)[C@@H](N)Cc3c[nH]c4ccccc34)C(C)C)C(=O)N[C@@H](CO)C(=O)N[C@H](C)C(=O)N3C[C@H](O)C[C@H]3C(=O)N[C@@H](CC(C)C)C(=O)N2)[C@@H](C)O)CCNC(=O)[C@H]([C@@H](C)O)NC(=O)[C@H](CCN)NC(=O)[C@H](CCN)NC1=O [Ex. 164] (H-W[Dab]VCS[dA][Hyp]LCY[Dab]G[Dab]T[Dab][Dab][Dab][dL]L[Dab][Dab]T; disulfide 4-9; lactam 16-C) | <1 | 0.5 | 0.0625 | 0.25 | 0.5 |
| CC(C)C[C@@H]1NC(=O)[C@@H](CC(C)C)NC(=O)[C@H](CCN)NC(=O)[C@@H](NC(=O)[C@H](CCN)NC(=O)[C@@H](NC(=O)[C@H](CCN)NC(=O)CNC(=O)[C@H](CCN)NC(=O)[C@H](Cc2ccc(O)cc2)NC(=O)[C@@H]2CSSC[C@H](NC(=O)[C@H](Cc3ccc(O)cc3)NC(=O)[C@H](CCN)NC(=O)[C@@H](N)Cc3c[nH]c4ccccc34)C(=O)N[C@@H](CO)C(=O)N3CCC[C@@H]3C(=O)N3CCC[C@H]3C(=O)N[C@@H](CC(C)C)C(=O)N2)[C@@H](C)O)CCNC(=O)[C@H]([C@@H](C)O)NC(=O)[C@H](CCN)NC(=O)[C@H](CCN)NC1=O [Ex. 165] (H-W[Dab]YCS[dP]PLCY[Dab]G[Dab]T[Dab][Dab][Dab][dL]L[Dab][Dab]T; disulfide 4-9; lactam 16-C) | 1 | 1 | 0.5 | 2 | 1 |
| CC(C)C[C@@H]1NC(=O)[C@H](CCCNC(=N)N)NC(=O)[C@@H](CCN)NC(=O)[C@H](C(C)C)NC(=O)[C@@H](NC(=O)[C@H](Cc2ccc(O)cc2)NC(=O)[C@H](CCN)NC(=O)[C@@H](N)Cc2c[nH]c3ccccc23)CSSC[C@@H](C(=O)N[C@@H](Cc2ccc(O)cc2)C(=O)N[C@@H](CCN)C(=O)NCC(=O)N[C@@H](CCN)C(=O)N[C@H](C(=O)N[C@@H](CCN)C(=O)N[C@H]2CCNC(=O)[C@H]([C@@H](C)O)NC(=O)[C@H](CCN)NC(=O)[C@H](CCN)NC(=O)[C@H](CC(C)C)NC(=O)[C@@H](CC(C)C)NC(=O)[C@H](CCN)NC2=O)[C@@H](C)O)NC1=O [Ex. 166] (H-W[Dab]YCV[dDab]RLCY[Dab]G[Dab]T[Dab][Dab][Dab][dL]L[Dab][Dab]T; disulfide 4-9; lactam 16-C) | 3 | 2 | 2 | 2 | 2 |
| CC(C)C[C@@H]1NC(=O)[C@@H](CC(C)C)NC(=O)[C@H](CCN)NC(=O)[C@@H](NC(=O)[C@H](CCN)NC(=O)[C@@H](NC(=O)[C@H](CCN)NC(=O)CNC(=O)[C@H]2NC(=O)[C@H](Cc3ccc(O)cc3)NC(=O)[C@H](CO)NC(=O)[C@H](CC(C)C)NC(=O)[C@@H]3CCCN3C(=O)[C@H]3CCCN3C(=O)[C@H](CO)NC(=O)[C@H](C)NC(=O)[C@H](C(C)C)NC(=O)[C@@H](NC(=O)[C@H](Cc3c[nH]c4ccccc34)NC(=N)N)C(C)(C)SSC2(C)C)[C@@H](C)O)CCNC(=O)[C@H]([C@@H](C)O)NC(=O)[C@H](CCN)NC(=O)[C@H](CCN)NC1=O [Ex. 174] (NαAmidinoTrp-[Pen]VAS[dP]PLSY[Pen]G[Dab]T[Dab][Dab][Dab][dL]L[Dab][Dab]T; disulfide 1-10; lactam 15-C) | 1 | 0.5 | 0.25 | 0.5 | 2 |
| CC(C)C[C@@H]1NC(=O)[C@@H](CC(C)C)NC(=O)[C@H](CCN)NC(=O)[C@@H](NC(=O)[C@H](CCN)NC(=O)[C@@H](NC(=O)[C@H](CCN)NC(=O)CN(C)C(=O)[C@@H]2CSSC[C@H](NC(=O)[C@@H](N)Cc3c[nH]c4ccccc34)C(=O)N[C@@H](C(C)C)C(=O)N[C@@H](C)C(=O)N[C@@H](CO)C(=O)N3CCC[C@@H]3C(=O)N3CCC[C@H]3C(=O)N[C@@H](CC(C)C)C(=O)N[C@@H](CO)C(=O)N[C@@H](Cc3ccc(O)cc3)C(=O)N2)[C@@H](C)O)CCNC(=O)[C@@H](C(C)C)NC(=O)[C@H](CCN)NC(=O)[C@H](CCN)NC1=O [Ex. 180] (H-WCVAS[dP]PLSYC[Sar][Dab]T[Dab][Dab][Dab][dL]L[Dab][Dab][dV]; disulfide 2-11; lactam 16-C) | <1 | 0.125 | 0.125 | 0.25 | 1 |
